A value given as a limit tells only on which side of the number the result lay.

The IC50 is the concentration that inhibits the measured activity by half.

The target in the first assay is T1, Zcchc11 enzyme (Homo sapiens, UniProt Q5TAX3).
T1 construct: made in house; host or cells: HEK293 cells (Zcchc11); E. coli Rosetta II (LIN28A)
T1 sequence (Q5TAX3 212-1420): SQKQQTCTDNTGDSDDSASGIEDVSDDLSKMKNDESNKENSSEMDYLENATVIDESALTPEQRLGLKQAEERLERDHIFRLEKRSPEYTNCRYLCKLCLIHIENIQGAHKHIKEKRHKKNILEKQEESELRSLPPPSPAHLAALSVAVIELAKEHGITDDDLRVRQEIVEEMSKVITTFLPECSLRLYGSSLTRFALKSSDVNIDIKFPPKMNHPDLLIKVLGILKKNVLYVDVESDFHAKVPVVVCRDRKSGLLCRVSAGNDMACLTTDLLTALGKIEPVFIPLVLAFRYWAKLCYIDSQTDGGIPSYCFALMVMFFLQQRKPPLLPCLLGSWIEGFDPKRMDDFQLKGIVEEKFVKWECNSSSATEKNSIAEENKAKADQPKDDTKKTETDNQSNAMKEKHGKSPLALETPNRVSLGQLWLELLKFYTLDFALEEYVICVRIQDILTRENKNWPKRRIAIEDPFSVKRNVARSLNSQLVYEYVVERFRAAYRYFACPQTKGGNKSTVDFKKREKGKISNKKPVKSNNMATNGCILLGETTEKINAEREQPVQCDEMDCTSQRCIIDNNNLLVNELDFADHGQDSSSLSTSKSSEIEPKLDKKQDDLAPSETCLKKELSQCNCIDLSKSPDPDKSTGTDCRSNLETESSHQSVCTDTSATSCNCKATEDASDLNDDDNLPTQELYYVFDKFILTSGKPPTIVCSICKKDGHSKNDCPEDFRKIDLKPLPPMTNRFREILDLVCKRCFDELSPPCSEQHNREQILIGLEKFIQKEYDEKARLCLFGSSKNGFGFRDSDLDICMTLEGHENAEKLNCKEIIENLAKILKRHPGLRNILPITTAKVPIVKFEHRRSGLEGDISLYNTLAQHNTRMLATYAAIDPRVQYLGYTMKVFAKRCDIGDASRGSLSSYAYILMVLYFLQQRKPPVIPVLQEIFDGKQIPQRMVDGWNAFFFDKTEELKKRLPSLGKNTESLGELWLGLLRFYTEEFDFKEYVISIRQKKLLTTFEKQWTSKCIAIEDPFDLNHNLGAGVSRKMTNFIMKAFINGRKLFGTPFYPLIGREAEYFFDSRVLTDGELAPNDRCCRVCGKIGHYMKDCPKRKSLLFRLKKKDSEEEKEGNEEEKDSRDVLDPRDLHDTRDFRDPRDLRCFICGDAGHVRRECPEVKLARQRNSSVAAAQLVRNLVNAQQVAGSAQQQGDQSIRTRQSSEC
As to the kind of experiment: TUTase assay (Zcchc11 assay, Lin28a-dependent polyuridylation of pre-let-7). Type of assay: biochemical. The note with it: LIN28A 10 nM, Zcchc11 0.2 nM, 5′-fluorescein pre-let-7 miRNA 2 nM, UTP 5 uM, room temperature, 30 minutes pre-incubation; read-out: Potency Lin28a-dep Z11 IC50. The method in brief: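 Human Zcchc11 residues 212-1420 (HEK293-expressed, MBP tag cleaved, C-terminal FLAG) at 0.2 nM, with 10 nM full-length human LIN28A and 2 nM 5′-fluorescein pre-let-7, preincubated with compound 30 min at room temperature. Reaction started with 5 uM UTP plus 4 nM 3′-rhodamine A20 quench probe; fluorescein loss read kinetically, IC50 from initial rates.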
Turning to `O=C(O)c1cn(-c2ccc(OCCO)cc2)c2cc(N3CCC[C@@H]3COc3ncccc3Br)c(F)cc2c1=O` [Example 21, (R)-7-(2-(((3-bromopyridin-2-yl)oxy)methyl)pyrrolidin-1-yl)-6-fluoro-1-(4-(2-hydroxyethoxy)phenyl)-4-oxo-1,4-dihydroquinoline-3-carboxylic acid], the IC50 was at most 1000 nM.

With `O=C(O)c1cn(-c2ccc(O)cc2)c2cc(N3CCC[C@@H]3Cn3ccc4ncccc43)c(F)cc2c1=O` [Example 11, (R)-7-(2-((1H-pyrrolo[3,2-b]pyridin-1-yl)methyl)pyrroledin-1-yl)-6-fluoro-1-(4-hydroxyphenyl)-4-oxo-1,4-dihydroquinoline-3-carboxylic acid], the IC50 was at most 1000 nM.

The same assay, now with this note: Lin28a-dependent Zcchc11 (Z11) TUTase activity; read-out: Potency Lin28a-dep Z11 IC50.
Take `COc1ccc(Cl)c(OCC23CC(CN2c2cc4c(cc2Cl)c(=O)c(C(=O)O)cn4-c2ccnc(N)c2)C3)n1` [Compound 177, 1-(2-aminopyridin-4-yl)-6-chloro-7-(1-[[(3-chloro-6-methoxy-pyridin-2-yl)oxy]methyl]-2-azabicyclo [2.1.1]hexan-2-yl)-4-oxoquinoline-3-carboxylic acid]: the IC50 fell in the range of 1000 to 10000 nM.

In the case of `O=C(O)c1cn(-c2cc(F)ccc2F)c2cc(N3CCC[C@@H]3COc3ccccn3)c(F)cc2c1=O` [Compound 143, (R)-1-(2,5-difluorophenyl)-6-fluoro-4-oxo-7-(2-((pyridin-2-yloxy)methyl)pyrrolidin-1-yl)-1,4-dihydro-quinoline-3-carboxylic acid], the IC50 is 1000 to 10000 nM.

For the compound `O=C(O)c1cn(-c2cnccn2)c2cc(N3CCC[C@@H]3COc3ncccc3F)c(F)cc2c1=O` (racemic) [Compound 174, rac-(R)-6-fluoro-7-(2-(((3-fluoropyridin-2-yl)oxy)methyl)pyrrolidin-1-yl)-4-oxo-1-(pyrazin-2-yl)-1,4-dihydro-quinoline-3-carboxylic acid], the half-inhibitory concentration (IC50) was at most 1000 nM.

`COCCn1cc(-n2cc(C(=O)O)c(=O)c3cc(C#N)c(N4CCC[C@@H]4COc4ncccc4Cl)cc32)cn1` [Compound 242, 7-[(2R)-2-[[(3-chloropyridin-2-yl)oxy]methyl]pyrrolidin-1-yl]-6-cyano-1-[1-(2-methoxyethyl)pyrazol-4-yl]-4-oxoquinoline-3-carboxylic acid]: the concentration for half-maximal inhibition (IC50) is at most 1000 nM.

Regarding `CN(C)C1CN(c2ccc(-n3cc(C(=O)O)c(=O)c4cc(Cl)c(N5CC(OC6CC6)C[C@@H]5COc5ncccc5Cl)cc43)cn2)C1` (stereo partly drawn) [Compound 275, 6-chloro-7-((2R)-2-(((3-chloropyridin-2-yl)oxy)methyl)-4-cycloprop-oxypyrrolidin-1-yl)-1-(6-(3-(dimethyl-amino)azetidin-1-yl)pyridin-3-yl)-4-oxo-1,4-dihydro-quinoline-3-carboxylic acid], the 50% inhibitory concentration (IC50) is at most 1000 nM.

Staying with this assay, now noted: Lin28a-dependent Zcchc11 (Z11) TUTase assay; read-out: Potency Lin28a-dep Z11 IC50.
For the compound `O=C(O)c1cn(-c2cccc(F)c2F)c2cc(N3CCC[C@@H]3COc3ccccn3)c(F)cc2c1=O` [Example 376, (R)-1-(2,3-difluorophenyl)-6-fluoro-4-oxo-7-(2-((pyridin-2-yloxy)methyl)pyrrolidin-1-yl)-1,4-dihydroquinoline-3-carboxylic acid], the IC50 was 1000 to 10000 nM.

Take `COc1ccnc(OC[C@H]2C[C@H]3C[C@H]3N2c2cc3c(cc2Cl)c(=O)c(C(=O)O)cn3-c2ccc(N3CC(N(C)C)C3)nc2)c1Cl` [Example 674, 6-chloro-7-((1R,3R,5R)-3-(((3-chloro-4-methoxypyridin-2-yl)oxy)methyl)-2-azabicyclo[3.1.0]hexan-2-yl)-1-(6-(3-(dimethylamino)azetidin-1-yl)pyridin-3-yl)-4-oxo-1,4-dihydroquinoline-3-carboxylic acid]: the half-maximal inhibitory concentration (IC50) is at most 1000 nM.

As for `Cc1cccnc1OC[C@H]1CCCN1c1cc2c(cc1F)c(=O)c(C(=O)O)cn2-c1ccc2[nH]c(=O)[nH]c2c1` [Example 443, (R)-6-fluoro-7-(2-(((3-methylpyridin-2-yl)oxy)methyl)pyrrolidin-1-yl)-4-oxo-1-(2-oxo-2,3-dihydro-1H-benzo[d]imidazol-5-yl)-1,4-dihydroquinoline-3-carboxylic acid], the 50% inhibitory concentration (IC50) is at most 1000 nM.

With `COc1ccc(Cl)c(OC[C@H]2CCCN2c2cc3c(cc2F)c(=O)c(C(=O)O)cn3-c2cnnc(N)c2)n1` [Example 646, (R)-1-(6-aminopyridazin-4-yl)-7-(2-(((3-chloro-6-methoxypyridin-2-yl)oxy)methyl)pyrrolidin-1-yl)-6-fluoro-4-oxo-1,4-dihydroquinoline-3-carboxylic acid], the IC50 was at most 1000 nM.

Take `O=C(O)c1cn(-c2ccc(O)cc2C(F)(F)F)c2cc(N3CCC[C@@H]3COc3ccccn3)c(F)cc2c1=O` [Example 383, (R)-6-fluoro-1-(4-hydroxy-2-(trifluoromethyl)phenyl)-4-oxo-7-(2-((pyridin-2-yloxy)methyl)pyrrolidin-1-yl)-1,4-dihydroquinoline-3-carboxylic acid]: the IC50 lay in the range of 10000 to 50000 nM.

Take `Cc1cccnc1OC[C@H]1CCCN1c1cc2c(cc1Cl)c(=O)c(C(=O)O)cn2C1CN(C)C1` [Example 458, (R)-6-chloro-1-(1-methylazetidin-3-yl)-7-(2-(((3-methylpyridin-2-yl)oxy)methyl)pyrrolidin-1-yl)-4-oxo-1,4-dihydroquinoline-3-carboxylic acid]: the half-maximal inhibitory concentration (IC50) lay within 1000 to 10000 nM.

In the case of `O=C(O)c1cn(C2(c3ccccc3)CC2)c2cc(N3CCC[C@@H]3COc3ncccc3Cl)c(Cl)cc2c1=O` [Example 588, (R)-6-chloro-7-(2-(((3-chloropyridin-2-yl)oxy)methyl)pyrrolidin-1-yl)-4-oxo-1-(1-phenylcyclo-propyl)-1,4-dihydroquinoline-3-carboxylic acid], the IC50 was 1000 to 10000 nM.

In the case of `Cn1cnc(-n2cc(C(=O)O)c(=O)c3cc(Cl)c(N4CCC[C@@H]4COc4ncccc4Cl)cc32)c1` [Example 566, (R)-6-chloro-7-(2-(((3-chloropyridin-2-yl)oxy)methyl)pyrrolidin-1-yl)-1-(1-methyl-1H-imidazol-4-yl)-4-oxo-1,4-dihydroquinoline-3-carboxylic acid], the half-inhibitory concentration (IC50) was at most 1000 nM.

In the case of `CCc1ccccc1-n1cc(C(=O)O)c(=O)c2cc(F)c(N3CCC[C@@H]3COc3ccccn3)cc21` [Example 404, (R)-1-(2-ethylphenyl)-6-fluoro-4-oxo-7-(2-((pyridin-2-yloxy)methyl)pyrrolidin-1-yl)-1,4-dihydroquinoline-3-carboxylic acid], the concentration for half-maximal inhibition (IC50) lay in the range of 1000 to 10000 nM.

`CN(C)c1cnc(-n2cc(C(=O)O)c(=O)c3cc(Cl)c(N4CCC[C@@H]4COc4ncccc4Cl)cc32)cn1` [Example 424, (R)-6-chloro-7-(2-(((3-chloropyridin-2-yl)oxy)methyl)pyrrolidin-1-yl)-1-(5-(dimethylamino)pyrazin-2-yl)-4-oxo-1,4-dihydroquinoline-3-carboxylic acid]: the half-inhibitory concentration (IC50) was at most 1000 nM.

As to `COCCOc1cnc(-n2cc(C(=O)O)c(=O)c3cc(Cl)c(N4CCC[C@@H]4COc4ncccc4Cl)cc32)cn1` [Example 419, (R)-6-chloro-7-(2-(((3-chloropyridin-2-yl)oxy)methyl)pyrrolidin-1-yl)-1-(5-(2-methoxy-ethoxy)pyrazin-2-yl)-4-oxo-1,4-dihydroquinoline-3-carboxylic acid], the IC50 was at most 1000 nM.

With `COCCOc1ccc(-n2cc(C(=O)O)c(=O)c3cc(F)c(N4CCC[C@@H]4COc4ccccn4)cc32)cc1` [Example 406, (R)-6-fluoro-1-(4-(2-methoxyethoxy)phenyl)-4-oxo-7-(2-((pyridin-2-yloxy)methyl)pyrrolidin-1-yl)-1,4-dihydroquinoline-3-carboxylic acid], the half-inhibitory concentration (IC50) was at most 1000 nM.

The values above are taken from patent US12662491B2 (Redona Therapeutics, Inc., priority 2020, dated 2026).
